Data on 3 compounds can be found in ChEMBL document CHEMBL5696442, “Discovery of type II inhibitors of TGFβ-activated kinase 1 (TAK1) and mitogen-activated protein kinase kinase kinase kinase 2 (MAP4K2)” (J Med Chem, 2015).

Active and inactive are the calls of the source. No cut-off for these calls is given here.

Test [1] has as its target T1, Phosphatidylinositol 5-phosphate 4-kinase type-2 gamma (Homo sapiens) (UniProt Q8TBX8).
T1 sequence (whole entry): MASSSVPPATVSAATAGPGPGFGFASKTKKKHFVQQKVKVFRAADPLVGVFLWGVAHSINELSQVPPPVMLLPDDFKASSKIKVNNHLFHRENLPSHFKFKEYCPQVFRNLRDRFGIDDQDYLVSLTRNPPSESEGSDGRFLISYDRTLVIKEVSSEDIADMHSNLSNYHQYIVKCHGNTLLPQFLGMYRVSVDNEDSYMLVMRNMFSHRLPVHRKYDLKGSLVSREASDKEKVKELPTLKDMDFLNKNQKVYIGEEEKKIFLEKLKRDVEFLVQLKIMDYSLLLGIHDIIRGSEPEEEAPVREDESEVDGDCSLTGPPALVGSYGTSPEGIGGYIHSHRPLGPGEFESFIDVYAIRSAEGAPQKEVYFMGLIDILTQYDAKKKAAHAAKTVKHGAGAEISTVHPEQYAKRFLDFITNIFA
Description: Inhibition of PIP4K2C ATP labeling site harbouring VKELPTLKDMDFLNK in human A-375 cells at 5 uM by KiNativ Profiling analysis relative to control. Type of test: cell-based.

In test [2] the target is Serine/threonine-protein kinase MRCK alpha (Homo sapiens) (UniProt Q5VT25). Description: Inhibition of MRCKA (unknown origin) at 10 uM by Ambit Kinomescan binding assay.
Test [3] concerns the target T2, Mitogen-activated protein kinase kinase kinase 5 (Homo sapiens) (UniProt Q99683).
T2 sequence (whole entry): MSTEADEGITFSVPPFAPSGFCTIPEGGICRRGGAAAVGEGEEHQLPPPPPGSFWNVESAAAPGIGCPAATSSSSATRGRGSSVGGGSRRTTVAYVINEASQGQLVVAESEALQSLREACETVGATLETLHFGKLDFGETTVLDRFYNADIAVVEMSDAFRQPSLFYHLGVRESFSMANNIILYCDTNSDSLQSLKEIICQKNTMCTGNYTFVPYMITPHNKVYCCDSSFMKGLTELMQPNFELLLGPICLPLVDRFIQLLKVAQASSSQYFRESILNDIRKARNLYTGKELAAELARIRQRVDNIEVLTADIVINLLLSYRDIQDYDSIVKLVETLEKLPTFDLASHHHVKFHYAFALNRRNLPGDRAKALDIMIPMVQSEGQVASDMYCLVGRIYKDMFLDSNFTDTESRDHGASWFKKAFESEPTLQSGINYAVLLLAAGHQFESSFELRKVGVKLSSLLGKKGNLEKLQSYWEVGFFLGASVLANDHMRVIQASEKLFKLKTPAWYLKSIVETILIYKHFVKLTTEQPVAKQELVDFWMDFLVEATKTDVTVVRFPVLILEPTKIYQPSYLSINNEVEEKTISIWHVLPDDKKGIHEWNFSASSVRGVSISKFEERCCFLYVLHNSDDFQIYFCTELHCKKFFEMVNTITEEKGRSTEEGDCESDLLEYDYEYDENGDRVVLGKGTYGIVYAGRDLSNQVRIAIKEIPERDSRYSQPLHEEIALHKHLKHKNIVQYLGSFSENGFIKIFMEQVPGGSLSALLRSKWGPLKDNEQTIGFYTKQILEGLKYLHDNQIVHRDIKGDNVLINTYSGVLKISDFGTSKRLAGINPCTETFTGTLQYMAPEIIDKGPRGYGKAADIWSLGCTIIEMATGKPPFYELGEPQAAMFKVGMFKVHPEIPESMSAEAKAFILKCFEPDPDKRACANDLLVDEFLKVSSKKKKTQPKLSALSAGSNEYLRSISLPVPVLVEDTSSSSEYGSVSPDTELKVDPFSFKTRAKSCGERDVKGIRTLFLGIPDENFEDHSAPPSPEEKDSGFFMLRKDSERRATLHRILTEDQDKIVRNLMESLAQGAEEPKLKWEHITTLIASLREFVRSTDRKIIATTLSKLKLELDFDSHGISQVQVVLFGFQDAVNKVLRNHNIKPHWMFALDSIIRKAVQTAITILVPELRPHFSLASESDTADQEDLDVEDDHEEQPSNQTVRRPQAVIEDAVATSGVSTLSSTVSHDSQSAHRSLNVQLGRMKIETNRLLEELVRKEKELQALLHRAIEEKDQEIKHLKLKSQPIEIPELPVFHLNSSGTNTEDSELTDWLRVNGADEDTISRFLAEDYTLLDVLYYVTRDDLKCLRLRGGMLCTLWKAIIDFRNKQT
Description: Inhibition of ASK1 (unknown origin) at 10 uM by Ambit Kinomescan binding assay.

In test [4] the target is Wee1-like protein kinase (Homo sapiens) (UniProt P30291). Description: Inhibition of Wee1 K2 labeling site in human Huh-7 cells at 10 uM by KiNativ Profiling analysis relative to control. Type of test: cell-based.
The target in test [5] is T3, Serine/threonine-protein kinase Chk1 (Homo sapiens) (UniProt O14757).
T3 sequence (whole entry): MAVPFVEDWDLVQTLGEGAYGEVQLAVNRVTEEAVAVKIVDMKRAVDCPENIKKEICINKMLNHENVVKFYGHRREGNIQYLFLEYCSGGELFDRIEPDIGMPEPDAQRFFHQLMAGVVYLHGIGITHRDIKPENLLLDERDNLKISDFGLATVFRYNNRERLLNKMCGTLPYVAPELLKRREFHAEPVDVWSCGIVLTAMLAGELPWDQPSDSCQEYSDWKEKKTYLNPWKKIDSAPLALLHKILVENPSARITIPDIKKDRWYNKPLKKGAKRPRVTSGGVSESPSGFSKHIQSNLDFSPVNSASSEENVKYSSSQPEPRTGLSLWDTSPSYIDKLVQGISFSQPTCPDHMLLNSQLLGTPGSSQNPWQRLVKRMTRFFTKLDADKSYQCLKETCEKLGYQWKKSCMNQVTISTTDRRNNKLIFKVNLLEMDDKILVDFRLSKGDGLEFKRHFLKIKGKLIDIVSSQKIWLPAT
Description: Inhibition of CHK1 in human Huh-7 cell lysate at 1 uM by KiNativ Profiling analysis relative to control. Type of test: subcellular.

The target of test [6] is DNA-PK/Ku70/Ku85 (Homo sapiens) (UniProt P78527+P12956+P13010). Description: Inhibition of DNAPK ATP labeling site harbouring GHDEREHPFLVKGGEDLR in human Huh-7 cell lysate at 1 uM by KiNativ Profiling analysis relative to control. Type of test: subcellular.
Test [7] has as its target Ribosomal protein S6 kinase alpha-1 (Homo sapiens) (UniProt Q15418). Description: Inhibition of RSK1 domain 1 Lys2 labeling site harbouring DLKPENILLDEEGHIKLTDFGLSK in human Huh-7 cell lysate at 1 uM by KiNativ Profiling analysis relative to control. Type of test: subcellular.
For test [8], the target named is Serine/threonine-protein kinase 16 (Homo sapiens) (UniProt O75716). The test can be described thus: Inhibition of MPSK1 Lys2 labeling site in human Huh-7 cells at 1 uM by KiNativ Profiling analysis relative to control. Type of test: cell-based.
Test [9] has as its target MAP/microtubule affinity-regulating kinase 3 (Homo sapiens) (UniProt P27448). The test can be described thus: Inhibition of MARK3 Lys1 labeling site in human Huh-7 cell lysate at 1 uM by KiNativ Profiling analysis relative to control. Type of test: subcellular.

Sequence of Serine/threonine-protein kinase 16 (Homo sapiens) (O75716 whole entry): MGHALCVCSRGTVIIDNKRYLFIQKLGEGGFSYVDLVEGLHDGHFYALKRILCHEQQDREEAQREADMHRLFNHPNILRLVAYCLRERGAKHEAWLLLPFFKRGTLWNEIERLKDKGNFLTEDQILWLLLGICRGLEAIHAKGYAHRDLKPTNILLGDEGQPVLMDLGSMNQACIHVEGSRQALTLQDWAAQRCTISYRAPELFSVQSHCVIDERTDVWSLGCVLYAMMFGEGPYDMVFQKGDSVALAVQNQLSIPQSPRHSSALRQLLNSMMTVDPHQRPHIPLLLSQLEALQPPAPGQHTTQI
Sequence of Serine/threonine-protein kinase MRCK alpha (Homo sapiens) (Q5VT25 whole entry): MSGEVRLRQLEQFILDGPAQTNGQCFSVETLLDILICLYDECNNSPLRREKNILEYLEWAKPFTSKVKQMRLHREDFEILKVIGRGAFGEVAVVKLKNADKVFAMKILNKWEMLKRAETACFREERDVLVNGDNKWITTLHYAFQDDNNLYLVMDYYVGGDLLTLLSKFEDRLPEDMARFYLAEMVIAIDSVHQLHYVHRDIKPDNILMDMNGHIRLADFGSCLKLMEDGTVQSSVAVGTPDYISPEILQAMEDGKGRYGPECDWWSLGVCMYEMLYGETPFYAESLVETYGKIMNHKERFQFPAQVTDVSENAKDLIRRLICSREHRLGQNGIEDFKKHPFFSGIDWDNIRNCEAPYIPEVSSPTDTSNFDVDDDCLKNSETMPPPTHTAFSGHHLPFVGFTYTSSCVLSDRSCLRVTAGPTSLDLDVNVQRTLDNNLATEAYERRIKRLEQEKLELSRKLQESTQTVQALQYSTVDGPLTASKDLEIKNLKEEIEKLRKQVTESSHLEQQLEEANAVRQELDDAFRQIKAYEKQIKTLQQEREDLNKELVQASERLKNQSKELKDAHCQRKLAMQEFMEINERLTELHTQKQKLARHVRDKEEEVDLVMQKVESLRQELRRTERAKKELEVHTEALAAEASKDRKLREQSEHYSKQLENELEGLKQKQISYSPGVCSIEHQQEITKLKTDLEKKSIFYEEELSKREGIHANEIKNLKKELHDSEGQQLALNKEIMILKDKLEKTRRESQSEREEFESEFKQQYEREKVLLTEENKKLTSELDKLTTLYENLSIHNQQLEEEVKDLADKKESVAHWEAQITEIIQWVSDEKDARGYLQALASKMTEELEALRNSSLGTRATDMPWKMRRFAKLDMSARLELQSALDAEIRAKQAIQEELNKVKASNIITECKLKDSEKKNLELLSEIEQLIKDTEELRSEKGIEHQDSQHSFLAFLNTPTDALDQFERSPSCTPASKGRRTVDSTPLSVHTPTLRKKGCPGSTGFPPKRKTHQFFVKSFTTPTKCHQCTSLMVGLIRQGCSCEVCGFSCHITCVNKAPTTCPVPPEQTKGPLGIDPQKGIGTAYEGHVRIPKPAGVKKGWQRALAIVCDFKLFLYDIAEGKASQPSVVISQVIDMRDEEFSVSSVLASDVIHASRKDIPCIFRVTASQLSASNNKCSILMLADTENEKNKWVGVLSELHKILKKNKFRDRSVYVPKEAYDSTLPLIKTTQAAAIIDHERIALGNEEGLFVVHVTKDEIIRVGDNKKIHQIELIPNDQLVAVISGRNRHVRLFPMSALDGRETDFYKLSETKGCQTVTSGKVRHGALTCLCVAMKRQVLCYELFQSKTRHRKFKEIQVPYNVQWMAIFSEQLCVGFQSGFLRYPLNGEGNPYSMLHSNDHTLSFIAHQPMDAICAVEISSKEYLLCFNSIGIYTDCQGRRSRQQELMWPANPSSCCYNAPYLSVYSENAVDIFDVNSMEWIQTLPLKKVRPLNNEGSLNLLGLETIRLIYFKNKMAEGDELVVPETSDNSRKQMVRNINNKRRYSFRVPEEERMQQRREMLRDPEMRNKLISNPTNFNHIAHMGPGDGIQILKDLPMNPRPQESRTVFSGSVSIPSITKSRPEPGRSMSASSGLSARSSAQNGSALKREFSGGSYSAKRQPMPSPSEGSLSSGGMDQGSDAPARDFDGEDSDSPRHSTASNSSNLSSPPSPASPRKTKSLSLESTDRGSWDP
Sequence of MAP/microtubule affinity-regulating kinase 3 (Homo sapiens) (P27448 whole entry, looked up): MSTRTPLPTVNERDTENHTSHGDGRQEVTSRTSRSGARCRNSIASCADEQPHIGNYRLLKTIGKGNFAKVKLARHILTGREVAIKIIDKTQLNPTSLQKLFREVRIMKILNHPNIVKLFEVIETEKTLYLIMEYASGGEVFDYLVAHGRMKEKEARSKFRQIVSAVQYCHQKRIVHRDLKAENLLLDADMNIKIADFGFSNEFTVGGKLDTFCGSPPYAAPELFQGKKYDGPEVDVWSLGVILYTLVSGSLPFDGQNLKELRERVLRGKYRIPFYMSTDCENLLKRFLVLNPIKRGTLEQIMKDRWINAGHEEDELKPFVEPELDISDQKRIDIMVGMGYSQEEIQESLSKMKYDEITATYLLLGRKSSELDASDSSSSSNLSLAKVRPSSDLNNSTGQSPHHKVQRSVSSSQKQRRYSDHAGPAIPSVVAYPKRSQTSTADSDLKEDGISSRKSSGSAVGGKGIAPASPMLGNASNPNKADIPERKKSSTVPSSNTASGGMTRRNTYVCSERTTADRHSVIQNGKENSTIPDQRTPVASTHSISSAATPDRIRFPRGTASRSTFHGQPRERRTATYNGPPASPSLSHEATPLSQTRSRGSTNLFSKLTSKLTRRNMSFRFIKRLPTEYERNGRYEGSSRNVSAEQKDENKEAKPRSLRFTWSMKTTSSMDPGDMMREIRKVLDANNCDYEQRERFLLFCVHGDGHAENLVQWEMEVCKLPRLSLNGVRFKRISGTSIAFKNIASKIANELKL
Sequence of Wee1-like protein kinase (Homo sapiens) (P30291 whole entry, looked up): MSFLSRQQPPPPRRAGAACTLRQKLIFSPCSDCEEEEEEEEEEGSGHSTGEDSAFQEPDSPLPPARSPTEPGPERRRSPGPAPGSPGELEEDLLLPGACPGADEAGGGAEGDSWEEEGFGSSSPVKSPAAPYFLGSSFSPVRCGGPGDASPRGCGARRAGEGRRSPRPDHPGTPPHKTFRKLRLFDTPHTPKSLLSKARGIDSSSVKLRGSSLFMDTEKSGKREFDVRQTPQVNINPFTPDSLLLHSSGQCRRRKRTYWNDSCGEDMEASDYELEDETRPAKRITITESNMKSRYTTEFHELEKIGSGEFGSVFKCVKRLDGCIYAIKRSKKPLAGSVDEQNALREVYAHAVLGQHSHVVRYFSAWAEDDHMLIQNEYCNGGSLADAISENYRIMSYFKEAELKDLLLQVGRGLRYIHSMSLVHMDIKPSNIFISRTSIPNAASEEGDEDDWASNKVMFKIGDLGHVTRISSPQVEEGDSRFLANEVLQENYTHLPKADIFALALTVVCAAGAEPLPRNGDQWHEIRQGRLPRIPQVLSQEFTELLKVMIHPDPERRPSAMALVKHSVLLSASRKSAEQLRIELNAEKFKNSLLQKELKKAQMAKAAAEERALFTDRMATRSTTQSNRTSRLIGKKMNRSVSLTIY
Sequence of Ribosomal protein S6 kinase alpha-1 (Homo sapiens) (Q15418 whole entry, the tested form may be a part): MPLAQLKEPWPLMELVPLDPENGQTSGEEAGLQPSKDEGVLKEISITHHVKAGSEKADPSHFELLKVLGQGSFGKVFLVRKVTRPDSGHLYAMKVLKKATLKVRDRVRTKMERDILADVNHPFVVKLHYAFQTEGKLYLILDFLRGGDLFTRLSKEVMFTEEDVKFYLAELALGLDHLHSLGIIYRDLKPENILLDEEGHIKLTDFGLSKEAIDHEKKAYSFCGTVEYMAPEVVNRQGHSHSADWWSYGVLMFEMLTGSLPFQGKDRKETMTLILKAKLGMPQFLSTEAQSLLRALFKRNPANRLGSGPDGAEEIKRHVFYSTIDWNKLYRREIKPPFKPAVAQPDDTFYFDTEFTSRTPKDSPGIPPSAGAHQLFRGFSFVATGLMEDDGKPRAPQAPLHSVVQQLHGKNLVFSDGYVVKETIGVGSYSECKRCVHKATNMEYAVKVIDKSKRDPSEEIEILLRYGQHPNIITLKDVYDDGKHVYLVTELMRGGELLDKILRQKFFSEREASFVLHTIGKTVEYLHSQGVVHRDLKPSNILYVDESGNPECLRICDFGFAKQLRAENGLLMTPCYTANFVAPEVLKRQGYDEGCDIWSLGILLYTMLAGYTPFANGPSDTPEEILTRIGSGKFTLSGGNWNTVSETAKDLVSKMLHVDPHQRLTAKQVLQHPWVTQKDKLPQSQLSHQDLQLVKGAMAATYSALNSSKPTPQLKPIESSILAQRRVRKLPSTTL

Turning to `CCN1CCN(Cc2ccc(NC(=O)c3ccc(C)c(/C=C/c4cnc5[nH]ccc5c4OC)c3)cc2C(F)(F)F)CC1`, the inhibition (as a rule, the change of the read-out against control, counted positive when it falls) in [1] came to 8.5%.

As for `CCN1CCN(Cc2ccc(NC(=O)c3ccc(C)c(Oc4ccnc5[nH]ccc45)c3)cc2C(F)(F)F)CC1`, the inhibition result in [2] and in test [3] was “inactive” each time. For the same compound, in test [4], the inhibition is -2.8%.

On to `CNc1cc(Oc2cc(C(=O)Nc3cc(N4CCN(C)CC4)cc(C(F)(F)F)c3)ccc2C)ncn1`, for which the inhibition worked out at 0.5% in test [5]; 7.9% in test [6]; 3.1% in test [7]; 33.2% in [8]; 13.8% in test [9].
